{"source": "patent US20220133701A1", "about": "“METHODS OF TREATING PAIN” (Yeda Research and Development Co. Ltd., priority 2019, published 2022)", "key": {"importin α3": {"tested_on": "importin α3", "experiment": "Western blot of importin α3 in HEK cells transduced with AAV9 constructs", "type": "cell-based", "details": "shα3 vs shCtrl, α3OE vs GFP (FIGS. 3A-C)", "description": "Transfection and Western blot analysis: Knockdown and overexpression constructs were tested in HEK or N2A cells transfected using JetPEI (Polyplus) according to manufacturer's instructions and lysed 48 hours later in RIPA buffer supplemented with protease inhibitors (Complete, Roche). For Western blot analysis, 5 μg of protein was separated on TGX Protean 5-15% gradient gels (Biorad) and transferred to nitrocellulose membranes. Membranes were blocked with 5% dried milk-TBST and probed overnight with an importin α3 antibody (1:5000) and GAPDH (MAB374, Millipore, 1:5000) as a loading control in 2% milk-TBST, followed by an anti-mouse HRP-conjugated antibody (#1706516 Biorad). Chemiluminescence was detected with Amersham Imager 600 and band intensities were quantified using the built-in software. AAV production and intrathecal injection: Purified adeno-associated virus (AAV) or the peripheral neuron specific PHP.S (AAV-PHP.S) [K. Y. Chan et al., Nat Neurosci 20, 1172-1179 (2017)] was produced in HEK 293T cells (ATCC®), with the AAVpro® Purification Kit (All Serotypes) from TaKaRa (#6666). For each construct ten 15 cm plates were transfected with 20 μg of DNA (AAV-plasmid containing the construct of interest and two AASV9 or AAV-PHP.S helper plasmids) using jetPEI® (Polyplus) in DMEM medium without serum or antibiotics. […]"}, "Kpna4/importin α3 mRNA": {"tested_on": "Kpna4/importin α3 mRNA", "experiment": "RT-qPCR of importin α3 (Kpna4) mRNA in DRG cultures after intrathecal AAV", "type": "in vivo, mouse", "details": "DRG cultures from mice one month following intrathecal injection; vs shCtrl (FIG. 3F)", "description": "Gene expression analysis by RT-qPCR: Total RNA from DRG neuronal cultures and DRG tissue from SNI mice were extracted using the Ambion RNAqueous-Micro total RNA isolation kit (Life Technologies Corp.). RNA purity, integrity (RIN>8) and concentration was determined, and 100-200 ng of total RNA was then used to synthesize cDNA using SuperScript III (Invitrogen). RT-qPCR was performed on a ViiA7 System (Applied Biosystems) using PerfeCTa SYBR Green (Quanta Biosciences, Gaithersburg, USA). Forward/Reverse primers were designed for different exons and the RNA was treated with […] to avoid false-positives. Amplicon specificity was verified by melting curve analysis. All RT-qPCR reactions were conducted in technical triplicates and the results were averaged for each sample, normalized to Actb levels and the relevant reporter genes such as GFP and for the viruses; and analyzed using the comparative ΔΔCt method [Livak & Schmittgen. Methods 25, 402 (2001)]. The following primers (Mus musculus) were used: […]"}, "mice": {"tested_on": "mice", "experiment": "Response to noxious heat (metal probe heated to 58° C. applied to paw, paw withdrawal latency)", "type": "in vivo, mouse", "description": "Pain Models—Responses to noxious heat were assessed by applying a metal probe heated to 58° C. to a forelimb paw, while holding the animal. Paw withdrawal latency was timed, typically ranging between 2-4 seconds in wild-type animals. If the paw was not withdrawn within 20 seconds the assay was terminated. The test was repeated three times for each animal, with at least 20 minute intervals between repeats. Heat sensitivity was also assessed using the hot plate test [L. Urien et al., Sci Rep 7, 43493 (2017)]. To this end, mice were placed individually in a 20 cm high Plexiglas box on a metal surface set at 52, 55 or 58° C., and the latency to initiate a nociceptive response (licking, hind paws shaking, jumping) was monitored by videotape. Mice were removed from the plate immediately after a nociceptive response."}, "SNI mice": {"tested_on": "SNI mice", "experiment": "CatWalk gait analysis (footprint width) in SNI mice", "type": "in vivo, mouse", "details": "AAV9 shRNA, 60 days post-injury, vs shCtrl (FIG. 4D)", "description": "CatWalk gait analysis and training was carried out as previously described [Perry et al. Neuron 75, 294 (2012)]. Motivation was achieved by a combination of food restriction during the initial training and placing of palatable reward at runway ends. The test was repeated three times for each mouse. Data were collected and analyzed using the Catwalk Ethovision XT11 software (Noldus Information Technology, The Netherlands). The analyzed indices are reported for each animal as print area and print width."}}, "data": [{"substance": "shα3: AAV9 expressing an importin α3 targeting shRNA (SEQ ID NO: 8), intrathecal injection (DNA GATCCGGCTTTGACAAACATTGCATGAAGCTTGATGCAATGTTTGTCAAAGCCTTTTTT)", "values": [{"measurement": "impα3 protein level (western blot, GAPDH normalized)", "setting": "importin α3", "value": "downregulation"}, {"measurement": "impα3 mRNA (RT-qPCR, log 2 fold-change normalized to GFP)", "setting": "Kpna4/importin α3 mRNA", "value": "significant downregulation of impα3 mRNA"}, {"measurement": "response to noxious heat", "setting": "mice; importin α3 knockout (−/−) mice after intrathecal AAV9 construct", "value": "No further alteration of the noxious heat response"}, {"measurement": "response to noxious heat", "setting": "mice; importin α3 knockout (−/−) mice after intrathecal AAV9 construct, listed as anti-importin α3 shRNAs", "value": "no further effect on responses to noxious heat"}, {"measurement": "response to noxious heat", "setting": "mice; wild type mice after intrathecal injection of AAV9 construct, vs control construct", "value": "reduced response of WT mice to noxious heat"}, {"measurement": "response to noxious heat", "setting": "mice; wild type mice after intrathecal injection of AAV9 construct, vs control construct, listed as anti-importin α3 shRNAs", "value": "delayed paw withdrawal latency to noxious heat"}, {"measurement": "footprint width / paw morphology and gait parameters, Catwalk", "setting": "SNI mice", "value": "significant recovery by 60 days"}, {"measurement": "footprint width / paw morphology and gait parameters, Catwalk", "setting": "SNI mice; listed as anti-importin α3 shRNA", "value": "regained unaltered paw morphology and gait parameters"}]}]}
